Measurements published in US10206394B2, “Herbicidal compounds” (Syngenta Participations AG, priority 2014, dated 2019).
Where two headings read alike, the source gives them in different places.

What was measured:
Assay in all cases: Glasshouse assay for herbicidal activity (pre- and post-emergence), percentage phytotoxicity
Assay type in all cases: in vivo
[1] = system: Alopecurus myosuroides (ALOMY); details: Alopecurus myosuroides, 250 g/ha, visual assessment (100%=total damage, 0%=no damage)
Summary of the method: (§1)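 Potted test plants in standard soil received the compound pre-emergence (day 1) or post-emergence (about day 12). Evaluation: visual damage score from 0% (none) to 100% (total), 15 days after application post-emergence, 20 days pre-emergence.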

[2] = system: Echinochloa crus-galli (ECHCG); details: Echinochloa crus-galli, 250 g/ha, visual assessment (100%=total damage, 0%=no damage)
Summary of the method: as §1

Avena fatua (AVEFA) = details: Avena fatua, 250 g/ha, visual assessment (100%=total damage, 0%=no damage)
Summary of the method: as §1

Lolium perenne (LOLPE) = details: Lolium perenne, 250 g/ha, visual assessment (100%=total damage, 0%=no damage)
Summary of the method: as §1

[3] = post-emergence, 360 h, post-emergence, 15 DAA, read-out: Post-emergence herbicidal activity (percentage phytotoxicity) ALOMY POST
[4] = pre-emergence, 480 h, pre-emergence, 20 DAA, read-out: Pre-emergence herbicidal activity (percentage phytotoxicity) ALOMY PRE
[5] = post-emergence, 360 h, post-emergence, 15 DAA, read-out: Post-emergence herbicidal activity (percentage phytotoxicity) ECHCG POST
[6] = pre-emergence, 480 h, pre-emergence, 20 DAA, read-out: Pre-emergence herbicidal activity (percentage phytotoxicity) ECHCG PRE
[7] = post-emergence, 360 h, post-emergence, 15 DAA, read-out: Post-emergence herbicidal activity (percentage phytotoxicity) AVEFA POST
[8] = pre-emergence, 480 h, pre-emergence, 20 DAA, read-out: Pre-emergence herbicidal activity (percentage phytotoxicity) AVEFA PRE
[9] = post-emergence, 360 h, post-emergence, 15 DAA, read-out: Post-emergence herbicidal activity (percentage phytotoxicity) LOLPE POST
[10] = pre-emergence, 480 h, pre-emergence, 20 DAA, read-out: Pre-emergence herbicidal activity (percentage phytotoxicity) LOLPE PRE

SMILES | pest or weed control at 250 g/ha [1, 3] [%] | pest or weed control at 250 g/ha [1, 4] [%] | pest or weed control at 250 g/ha [2, 5] [%] | pest or weed control at 250 g/ha [2, 6] [%] | pest or weed control at 250 g/ha (Avena fatua (AVEFA); [7]) [%] | pest or weed control at 250 g/ha (Avena fatua (AVEFA); [8]) [%] | pest or weed control at 250 g/ha (Lolium perenne (LOLPE); [9]) [%] | pest or weed control at 250 g/ha (Lolium perenne (LOLPE); [10]) [%]
Cc1cc(C)c(C2C(=O)CC(CC(=O)NCC3CC3(Cl)Cl)C2=O)c(C)c1 (centres unmarked) [Compound B40] | 80 | 90 | 90 | 90 | 90 | 70 | 80 | 90
Cc1cc(C)c(C2C(=O)CC(CC(=O)NC3(C)CCCC3)C2=O)c(C)c1 (centres unmarked) [Compound B41] | 80 | 70 | 60 | 60 | 70 | 30 | 60 | 70
Cc1cc(C)c(C2C(=O)CC(CC(=O)NC3=NOC(C)(C)C3)C2=O)c(C)c1 (centres unmarked) [Compound B42] | 60 | 0 | 0 | 0 | 60 | 0 | 40 | 0
Cc1cc(C)c(C2C(=O)CC(CC(=O)NC(C)(C)C#N)C2=O)c(C)c1 (centres unmarked) [Compound B43] | 80 | 70 | 60 | 40 | 80 | 30 | 80 | 60
C=C(C)CNC(=O)CC1CC(=O)C(c2c(C)cc(C)cc2C)C1=O (centres unmarked) [Compound B44] | 90 | 90 | 90 | 90 | 90 | 60 | 90 | 100
C#CCN(CC#C)C(=O)CC1CC(=O)C(c2c(C)cc(C)cc2C)C1=O (centres unmarked) [Compound B45] | 80 | 70 | 80 | 60 | 80 | 10 | 80 | 80
Cc1cc(C)c(C2C(=O)CC(CC(=O)NC/C=C/Cl)C2=O)c(C)c1 (centres unmarked) [Compound B46] | 90 | 90 | 90 | 90 | 90 | 60 | 90 | 100
C/C=C/CNC(=O)CC1CC(=O)C(c2c(C)cc(C)cc2C)C1=O (centres unmarked) [Compound B47] | 90 | 90 | 90 | 90 | 80 | 60 | 90 | 100
Cc1cc(-c2ncc(Cl)cc2C#N)cc(C)c1C1C(=O)CC(CC(=O)NC(C)(C)C)C1=O (centres unmarked) [Compound B48] | 80 | 90 | 100 | 90 | 80 | 30 | 90 | 80
Cc1cc(-c2ncc(Cl)cn2)cc(C)c1C1C(=O)C[C@@H](CC(=O)NC(C)(C)C)C1=O (some centres unmarked) [Compound B49] | 100 | 100 | 100 | 100 | 100 | 90 | 100 | 100
Cc1cc(-c2ncc(Cl)cn2)cc(C)c1C1C(=O)C[C@H](CC(=O)NC(C)(C)C)C1=O (some centres unmarked) [Compound B50] | 100 | 90 | 100 | 100 | 90 | 70 | 100 | 100
Cc1cc(-c2ncc(F)cc2F)cc(C)c1C1C(=O)C[C@@H](CC(=O)NC(C)(C)C)C1=O (some centres unmarked) [Compound B51] | 100 | 90 | 100 | 100 | 100 | 80 | 100 | 100
Cc1cc(-c2ncc(F)cc2F)cc(C)c1C1C(=O)C[C@H](CC(=O)NC(C)(C)C)C1=O (some centres unmarked) [Compound B52] | 100 | 90 | 100 | 90 | 90 | 70 | 100 | 100
Cc1cc(-c2ncc(Cl)cc2F)cc(C)c1C1C(=O)CC(CC(N)=O)C1=O (centres unmarked) [Compound B53] | 90 | 90 | 100 | 90 | 100 | 100 | 100 | 90
Cc1cc(-c2ncc(F)cc2F)cc(C)c1C1C(=O)CC(CC(N)=O)C1=O (centres unmarked) [Compound B54] | 100 | 80 | 100 | 80 | 100 | 80 | 100 | 80
C#CC(C)(COC)NC(=O)CC1CC(=O)C(c2c(C)cc(C)cc2C)C1=O (centres unmarked) [Compound B55] | 80 | 80 | 60 | 50 | 60 | 30 | 70 | 70
C#CC(C)NC(=O)CC1CC(=O)C(c2c(C)cc(C)cc2C)C1=O (centres unmarked) [Compound B56] | 90 | 80 | 90 | 90 | 90 | 70 | 90 | 80
Cc1cc(C)c(C2C(=O)CC(CC(=O)NCC(F)F)C2=O)c(C)c1 (centres unmarked) [Compound B57] | 70 | 70 | 80 | 90 | 80 | 20 | 80 | 80
Cc1cc(C)c(C2C(=O)CC(CC(=O)NC(C#N)C3CC3)C2=O)c(C)c1 (centres unmarked) [Compound B58] | 50 | 10 | 20 | 20 | 70 | 40 | 50 | 20
Cc1cc(C)c(C2C(=O)CC(CC(=O)NCC(F)(F)F)C2=O)c(C)c1 (centres unmarked) [Compound B59] | 70 | 70 | 80 | 90 | 70 | 30 | 80 | 90
Cc1cc(C)c(C2C(=O)CC(CC(=O)NCC3CC3C(F)F)C2=O)c(C)c1 (centres unmarked) [Compound B60] | 80 | 90 | 90 | 90 | 80 | 60 | 80 | 80
Cc1cc(C)c(C2C(=O)CC(CC(=O)NCCF)C2=O)c(C)c1 (centres unmarked) [Compound B61] | 80 | 70 | 90 | 90 | 90 | 70 | 90 | 90
